Values of other authors in patent US9801891B2, “Compositions and methods for lowering intraocular pressure” (ALLERGAN, INC., priority 2009, dated 2017).

System: alpha-2 adrenoceptor

Brc1c(N=C2NCCN2)ccc2nccnc12.O=C(O)C(O)C(O)C(=O)O [Brimonidine tartrate, 5-bromo-6-(2-imidazolidinylideneamino) quinoxaline L-tartrate]
Selectivity for the alpha-2 adrenoceptor over the alpha-1 adrenoreceptor: 1000 fold
